Measured values: patent US10292981B2, “Oxazoline and isoxazoline derivatives as CRAC modulators” (LUPIN LIMITED, priority 2010, dated 2019)

These compounds were tested on IL-2 secretion, Jurkat T cells (assay: Inhibition of IL-2 secretion (PHA-stimulated Jurkat T cells, ELISA)). Conditions: Homo sapiens; Jurkat T cells stimulated with PHA, 20 to 24 hours.
Assay type: cell-based
Experimental: The CRAC channel modulatory activity of the compounds were thus evaluated by measuring the secretion of IL-2 by antigen stimulated T-cells in vitro. Alternatively, such activity can also be evaluated by assay methods known to one skilled in the art.
Inhibition of IL-2 secretion: Jurkat T cells were seeded at a density of 0.5 to 1 million cells per well in RPMI medium. Test compounds from this invention were added to the cells at different concentrations. This was followed by the addition of PHA, a T cell mitogen after 10 minutes.
The cells were then incubated for 20 to 24 hours in a CO2 incubator at 37° C. After incubation with the compounds, cells were centrifuged, collected the supernatant and processed for ELISA to quantitate the amount of IL-2 secreted. A commercial ELISA kit (R&D Systems, Inc. Minneapolis, Minn., USA) was used to estimate the IL-2 concentrations. Amount of IL-2 secreted by cells stimulated with PHA was considered as a 100% maximal signal and the decrease in amount of IL-2 secreted by cells treated with the test compounds was expressed as percent inhibition of the maximal signal. The dose response data was analyzed using 4-parametric sigmoidal dose response (variable slope) curve-fit.

| IC50 [nM] | Compound |
| --- | --- |
| 100 to 1000 | Cc1c(-c2cnc(NC(=O)C3CCc4ccccc4C3)cn2)cccc1-c1nn(C)c(=O)o1 (racemic) [Example 138, (R/S)-N-(5-(2-Methyl-3-(4-methyl-5-oxo-4,5-dihydro-1,3,4-oxadiazol-2-yl)phenyl)pyrazin-2-yl)-1,2,3,4-tetrahydronaphthalene-2-carboxamide] |
| < 100 | Cc1ccc(C2=NOC(C)(C)C2=O)cc1-c1ccc(NC(=O)c2c(F)cccc2F)cc1 [Example 3] |
| 100 to 1000 | Cc1ccc(C2=NOC(C)(C)C2=O)cc1-c1ccc(NC(=O)c2c(F)cccc2F)nc1 [Example 4, N-(5-(5-(5,5-Dimethyl-4-oxo-4,5-dihydroisoxazol-3-yl)-2-methylphenyl)pyridin-2-yl)-2,6-difluorobenzamide] |
| 100 to 1000 | CCc1ccc(C2=NOC(C)(C)C2=O)cc1-c1ccc(NC(=O)c2c(F)cccc2F)cn1 [Example 7, N-(6-(5-(5,5-dimethyl-4-oxo-4,5-dihydroisoxazol-3-yl)-2-ethylphenyl)pyridin-3-yl)-2,6-difluorobenzamide] |
| 100 to 1000 | CC(C)c1ccc(C2=NOC(C)(C)C2=O)cc1-c1cnc(NC(=O)c2c(F)cccc2F)cn1 [Example 8, N-(5-(5-(5,5-dimethyl-4-oxo-4,5-dihydroisoxazol-3-yl)-2-isopropylphenyl)pyrazin-2-yl)-2,6-difluorobenzamide] |
| > 1000 | CC1(C)ON=C(c2ccc(C(C)(C)C)c(-c3ccc(NC(=O)c4c(F)cccc4F)cc3)c2)C1=O [Example 10, N-(2′-(tert-butyl)-5′-(5,5-dimethyl-4-oxo-4,5-dihydroisoxazol-3-yl)-[1,1′-biphenyl]-4-yl)-2,6-difluorobenzamide] |
| 100 to 1000 | CC1(C)ON=C(c2ccc(Cl)c(-c3ccc(NC(=O)c4c(F)cccc4F)cc3)c2)C1=O [Example 11, N-(2′-chloro-5′-(5,5-dimethyl-4-oxo-4,5-dihydroisoxazol-3-yl)-[1,1′-biphenyl]-4-yl)-2,6-difluorobenzamide] |
| < 100 | COc1ccc(C2=NOC(C)(C)C2=O)cc1-c1ccc(NC(=O)c2snnc2C)cc1 [Example 16, N-(5′-(5,5-Dimethyl-4-oxo-4,5-dihydroisoxazol-3-yl)-2′-methoxy-[1,1′-biphenyl]-4-yl)-4-methyl-1,2,3-thiadiazole-5-carboxamide] |
| > 1000 | COc1ccc(C2=NOC(C)(C)C2=O)cc1-c1ccc(NC(=O)c2c(F)cccc2F)nc1 [Example 17, N-(5-(5-(5,5-dimethyl-4-oxo-4,5-dihydroisoxazol-3-yl)-2-methoxyphenyl)pyridin-2-yl)-2,6-difluorobenzamide] |
| 100 to 1000 | COc1ccc(C2=NOC(C)(C)C2=O)cc1-c1ccc(NC(=O)c2c(F)cccc2F)cn1 [Example 18, N-(6-(5-(5,5-dimethyl-4-oxo-4,5-dihydroisoxazol-3-yl)-2-methoxyphenyl)pyridin-3-yl)-2,6-difluorobenzamide] |
| < 100 | CC(=O)Nc1ccc(C2=NOC(C)(C)C2=O)cc1-c1ccc(NC(=O)c2c(F)cccc2F)cc1 [Example 19, N-(2′-acetamido-5′-(5,5-dimethyl-4-oxo-4,5-dihydroisoxazol-3-yl)-[1,1′-biphenyl]-4-yl)-2,6-difluorobenzamide] |
| 100 to 1000 | COC1C(c2ccc(C)c(-c3cnc(NC(=O)c4c(F)cccc4F)cn3)c2)=NOC1(C)C (stereo not drawn) [Example 23, 2,6-difluoro-N-(5-(5-(4-methoxy-5,5-dimethyl-4,5-dihydroisoxazol-3-yl)-2-methylphenyl)pyrazin-2-yl)benzamide] |
| 100 to 1000 | COC1C(c2ccc(C)c(-c3ccc(NC(=O)c4c(F)cccc4F)cc3)c2)=NOC1(C)C (stereo not drawn) [Example 24, 2,6-Difluoro-N-(5′-(4-methoxy-5,5-dimethyl-4,5-dihydroisoxazol-3-yl)-2′-methyl-[1,1′-biphenyl]-4-yl)benzamide] |
| 100 to 1000 | COc1c(C2=NOC(C)(C)C2=O)cccc1-c1ccc(NC(=O)c2c(F)cccc2F)cc1 [Example 31, N-(3′-(5,5-Dimethyl-4-oxo-4,5-dihydroisoxazol-3-yl)-2′-methoxy-[1,1′-bipheny;]-4-yl)-2,6-difluorobenzamide] |
| < 100 | Cc1ccc(-c2nn(C)c(=O)o2)cc1-c1ccc(NC(=O)c2c(F)cccc2F)cc1 [Example 33, 2,6-Difluoro-N-(2′-methyl-5′-(4-methyl-5-oxo-4,5-dihydro-1,3,4-oxadiazol-2-yl)-[1,1′-biphenyl]-4-yl)benzamide] |
| < 100 | CCn1nc(-c2ccc(C)c(-c3ccc(NC(=O)c4c(F)cccc4F)cc3)c2)oc1=O [Example 34, N-(5′-(4-Ethyl-5-oxo-4,5-dihydro-1,3,4-oxadiazol-2-yl)-2′-methyl-[1,1′-biphenyl]-4-yl)-2,6-difluorobenzamide] |
| < 100 | COc1ccc(-c2nn(C)c(=O)o2)cc1-c1ccc(NC(=O)c2c(F)cccc2F)cc1 [Example 40, 2,6-Difluoro-N-(2′-methoxy-5′-(4-methyl-5-oxo-4,5-dihydro-1,3,4-oxadiazol-2-yl)[1,1′-biphenyl]-4-yl)benzamide] |

| IC50 [nM] | Compound |
| --- | --- |
| < 100 | Cn1nc(-c2ccc(Cl)c(-c3ccc(NC(=O)c4c(F)cccc4F)cc3)c2)oc1=O [Example 46, N-(2′-Chloro-5′-(4-methyl-5-oxo-4,5-dihydro-1,3,4-oxadiazol-2-yl)-[1,1′-biphenyl]-4-yl)-2,6-difluorobenzamide] |
| 100 to 1000 | Cc1ccc(C2=NOC(C)(C)C2)cc1-c1cnc(NC(=O)c2c(F)cccc2F)cn1 [Example 53] |
| 100 to 1000 | Cc1ccc(C2=NOC3(CCCCC3)C2=O)cc1-c1ccc(NC(=O)c2c(F)cccc2F)cc1 [Example 58, 2,6-Difluoro-N-(2′-methyl-5′-(4-oxo-1-oxa-2-azaspiro[4.5]dec-2-en-3-yl)-[1,1′-biphenyl]-4-yl)benzamide] |
| 100 to 1000 | Cc1ccc(C2=NC(C)(C)CO2)cc1-c1ccc(NC(=O)c2c(F)cccc2F)cc1 [Example 61, N-(5′-(4,4-dimethyl-4,5-dihydrooxazol-2-yl)-2′-methyl-[1,1′-biphenyl]-4-yl)-2,6-difluorobenzamide] |
| 100 to 1000 | Cc1ccc(C2=NOC(C)(C)C2=O)cc1-c1cnc(NC(=O)c2cc(F)ccc2F)cn1 [Example 67, N-(5-(5-(5,5-Dimethyl-4-oxo-4,5-dihydroisoxazol-3-yl)-2-methylphenyl)pyrazine-2-yl)-2,5-difluorobenzamide] |
| > 1000 | Cc1ccc(C2=NOC(C)(C)C2=O)cc1-c1cnc(NC(=O)c2ccc(F)cc2)cn1 [Example 69, N-(5-(5-(5,5-Dimethyl-4-oxo-4,5-dihydroisoxazol-3-yl)-2-methylphenyl)pyrazine-2-yl)-4-fluorobenzamide] |
| 100 to 1000 | Cc1ccc(C2=NOC(C)(C)C2=O)cc1-c1cnc(NC(=O)c2ccccc2Cl)cn1 [Example 78, 2-Chloro-N-(5-(5-(5,5-dimethyl-4-oxo-4,5-dihydroisoxazol-3-yl)-2-methylphenyl)pyrazin-2-yl)benzamide] |
| < 100 | Cc1ccc(C2=NOC(C)(C)C2=O)cc1-c1cnc(NC(=O)c2c(F)cccc2Cl)cn1 [Example 80, 2-Chloro-N-(5-(5-(5,5-dimethyl-4-oxo-4,5-dihydroisoxazol-3-yl)-2-methylphenyl)pyrazin-2-yl)-6-fluorobenzamide] |
| < 100 | Cc1ccc(-c2nn(C)c(=O)o2)cc1-c1cnc(NC(=O)c2c(F)cccc2F)cn1 [Example 87, 2,6-Difluoro-N-(5-(2-methyl-5-(4-methyl-5-oxo-4,5-dihydro-1,3,4-oxadiazol-2-yl)phenyl)pyrazin-2-yl)benzamide] |
| < 100 | COc1ccc(-c2nn(C)c(=O)o2)cc1-c1cnc(NC(=O)c2c(F)cccc2F)cn1 [Example 93, 2,6-Difluoro-N-(5-(2-methoxy-5-(4-methyl-5-oxo-4,5-dihydro-1,3,4-oxadiazol-2-yl)phenyl)pyrazin-2-yl)benzamide] |
| 100 to 1000 | Cc1ccc(C2=NOC(C)(C)C2=O)cc1-c1cnc(NC(=O)c2c(Cl)cncc2Cl)cn1 [Example 103, 3,5-Dichloro-N-(5-(5-(5,5-dimethyl-4-oxo-4,5-dihydroisoxazol-3-yl)-2-methylphenyl)pyrazin-2-yl)isonicotinamide] |
| 100 to 1000 | Cc1ccc(C2=NOC(C)(C)C2=O)cc1-c1cnc(NC(=O)c2ccncc2F)cn1 [Example 107, N-(5-(5-(5,5-dimethyl-4-oxo-4,5-dihydroisoxazol-3-yl)-2-methylphenyl)pyrazin-2-yl)-3-fluoroisonicotinamide] |
| 100 to 1000 | Cc1ccc(C2=NOC(C)(C)C2=O)cc1-c1cnc(NC(=O)c2cccnc2C)cn1 [Example 113, N-(5-(5-(5,5-dimethyl-4-oxo-4,5-dihydroisoxazol-3-yl)-2-methylphenyl)pyrazin-2-yl)-2-methylnicotinamide] |
| < 100 | Cc1ccc(C2=NOC(C)(C)C2=O)cc1-c1cnc(NC(=O)c2c(F)cncc2F)cn1 [Example 114, N-(5-(5-(5,5-dimethyl-4-oxo-4,5-dihydroisoxazol-3-yl)-2-methylphenyl)pyrazin-2-yl)-3,5-difluoroisonicotinamide] |
| 100 to 1000 | Cc1ccc(C2=NOC(C)(C)C2=O)cc1-c1cnc(C(=O)Nc2c(F)cccc2F)cn1 [Example 121, N-(2,6-Difluorophenyl)-5-(5-(5,5-dimethyl-4-oxo-4,5-dihydroisoxazol-3-yl)-2-methylphenyl)pyrazine-2-carboxamide] |
| 100 to 1000 | CC(C)Oc1ccc(C2=NOC(C)(C)C2=O)cc1-c1cnc(NC(=O)c2c(F)cccc2F)cn1 [Example 126, N-(5-(5-(5,5-dimethyl-4-oxo-4,5-dihydroisoxazol-3-yl)-2-isopropoxy-phenyl)pyrazin-2-yl)-2,6-difluorobenzamide] |
